The values that follow come from patent US6407125B1, “Pharmacological agent and method of treatment” (Novactyl, Inc., priority 1995, dated 2002).

Molecules are shown by their SMILES.

One data set concerns the target recombinant MPS-1 (Homo sapiens, UniProt P42677). The data set can be described thus: Gel shift assay of zinc dependent binding of recombinant MPS-1 to DNA; 65Zn removal from MPS-1. Format: biochemical. The source says: MPS-1 is a ubiquitous tumor marker and cell growth stimulator and is described in detail in the inventor's U.S. Pat. No. Re.35,585 (U.S. Pat. No. 5,243,041). MPS-1 has one zinc finger domain of the type CCCC. […] This is detected by a change in the electrophoretic mobility of MPS-1 under non-denaturing conditions. These experiments indicate that picolinic acid and derivatives should remove zinc and denature various types of zinc finger or zinc ring proteins, whether known or heretofore undiscovered, including viral proteins such as nucleocapsid p7 proteins, as will be explained further. Furthermore, the inventor has determined that any chemical compound, whether known or heretofore undiscovered, that will remove the zinc (or other metal) and denature the proteins or that will form a ternary complex (protein-zinc-chelator) can be effective as a therapeutic agent or as an autologous immune response modulator, as will be discussed in greater detail below.
Background: A gel shift assay detects complexes by their altered migration in electrophoresis.

Data set [1] deals with Microbial and fungal growth. The data set can be described thus: Preservative effect on microbial and fungal growth in foods. The conditions noted are these: used as preservative. The source says:
The chelating agents of the present invention can be used as preservatives in perishable items such as foods and pharmaceuticals and to prevent fungal growth on the surface of fresh fruits. Presently chemicals such as citrashine orthophenilphenol thiabendazole are used. […] Microbial and fungal growth is inhibited while the food components are unaffected. The preservative of the present invention has less likelihood of toxicity or untoward reactions if ingested that the present, complex chemical antifungals. The preferred concentration of picolinic acid or acceptable derivative for this use is approximately below 0.025% to be classified as a preservative. Of course, greater percentages, e.g. up to 99.9% also would be effective.

The nature of data set [2]: Topical treatment of sunburn. Format: in vivo. The conditions noted are these: 1%, 5% or 10% picolinic acid in absorption base; over 25 cases. The source says:
Furthermore, it is believed that the response of cells to stress, such as exposure to UV radiation, chemicals, bacteria, parasites or fungi is associated with the induction of heat shock proteins.

In the next data set the test system is metastatic colon cancer. The data set can be described thus: Oral treatment of metastatic colon cancer, case. The data set is classed as in vivo, human. The source says:
The inventor has determined that systemic administration of picolinic acid or derivatives is effective in controlling various cancers with reduced side effects by mechanisms heretofore unknown or unanticipated. […] The patient's condition improved. Based upon known mechanisms of action, the inventor anticipated that the patient may become anemic due to the concomitant chelation of iron. However, the inventor discovered a completely novel response. Over the course of several weeks, the patent's hematocrit increased. The inventor determined that the increase in hemoglobin along with the clinical improvement, is a result of synergistic mechanisms. First, the chelation of the iron suppressed tumor angiogenesis and induce killer T-cell formation. Furthermore, the chelated iron appears to be actively and usefully transported to bone marrow to support hematopoesis.
The subject is a person with metastatic colon cancer. The subject presented with an enlarged lymph node in the neck. The lymph node was putting pressure on nerves causing a drooping of the subject's right eyelid. […] Treatment was initiated with 500 mg of picolinic acid in capsule form, by mouth twice daily. […] An aspiration needle biopsy of the lymph node was attempted but had to be repeated due to the fact that the pathologist was withdrawing necrotic tissue from the lymph node. […] The protocol includes increasing the dosage up to 2000 mg per day, or more, if required.

The next data set has as its system plantar wart. The data set can be described thus: Topical treatment of virus-induced plantar ulcer. The data set is classed as in vivo, human. As to the method:
A patient with recurrent plantar wart of about 2 cm in diameter was treated with topical picolinic acid. The patient, a pathologist who had difficulty walking because of the pain caused by the ulcer, had experimented with numerous medications for more than three months without any significant results prior to treatment with the picolinic acid. It is relevant to note that many plantar ulcers are transformed into malignant tumors.
The patient was treated with a solution of 10% picolinic acid in deionized water for one week. […] They then were treated with 10% picolinic acid in Aquaphor. The ointment was placed on the ulcer and on a patch. The patch was replaced every 24 hours.

The next data set has as its system lymphoma. The data set can be described thus: Oral treatment of lymphoma and impaired immunity. Format: in vivo, human. The conditions noted are these: oral 2000 to 4000 mg per day. The protocol: The patient was a person with a history of lymphoma and impaired immunity. The patient had received standard therapy for lymphoma including the CHOP regimen. […] The patient contracted pneumonia three or four times per year and suffered from chronic otitis, chronic sinusitis and chronic Herpes Zoster infections.
The patient was treated with oral picolinic acid starting at 2000 mg per day and increased to 4000 mg per day divided equally in four doses. […] Their immunoglobulin levels rose to 3.3. Their chronic ear and sinus infections and pneumonia resolved concurrently. The Herpes Zoster disappeared.

A further data set deals with transformed cells. The conditions noted are these: cited from earlier work.

Consider `O=C(O)c1ccccn1` [picolinic acid, 2-Pyridine carboxylic acid], for which the “removal of radioactive 65Zn from MPS-1” value at recombinant MPS-1 (CCCC zinc finger, change in electrophoretic mobility, non-denaturing conditions) is reported as “remove radioactive 65Zn from MPS-1”. In addition, the “zinc dependent binding of recombinant MPS-1 to DNA” value on recombinant MPS-1 (gel shift assays) is “inhibit the zinc dependent binding of recombinant MPS-1 to DNA”. The “microbial and fungal growth” value in data set [1] is recorded as “inhibited”. Also, the treatment of sunburn entry in data set [2] is “successfully used”. Also, the “estimated reduction in mass of cancerous lymph node” value in the data set on metastatic colon cancer (500 mg capsule by mouth twice daily, within 72 hours, palpation) is “over 50%”. For the same compound, the tolerability result in the data set on metastatic colon cancer (500 mg picolinic acid twice daily) is on record as “tolerating treatment well”. Further, in the data set with metastatic colon cancer (oral picolinic acid, over several weeks), the hematocrit entry was “increased”. Further, the plantar ulcer appearance result in the data set with plantar wart (10% solution in deionized water for one week) is “Central necrosis was noted”. The plantar ulcer outcome in the data set with plantar wart (then 10% in Aquaphor on ulcer and patch, additional three weeks) is “the plantar ulcer resolved”. In the data set on lymphoma, the “chronic ear and sinus infections and pneumonia” value is “resolved”. In the data set on lymphoma (approximately two weeks), the lymphoma response result is “reduction in size of lymph nodes”. In the data set with lymphoma (before treatment 0.6 to 0.7), this compound registered an immunoglobulin levels of 3.3. Further, the actinic lesion outcome (10% in Aquaphor daily, approximately three weeks, two patients) was “completely cured”. In addition, under “in vivo”, the “effects on normal skin” value is on record as “without any effects on normal skin”. The “cytotoxicity in transformed cells” value in the data set on transformed cells was “cytotoxicity and cell death”.
